Literature values as cited in patent US20080269311A1, “Combination of Dpp-Iv Inhibitors and Compounds Modulating 5-Ht3 and/or 5-Ht4 Receptors” (priority 2004, published 2008).

Target: T1, 5-HT3 receptor subtype (Homo sapiens, UniProt P46098)
T1 sequence (P46098 24-478): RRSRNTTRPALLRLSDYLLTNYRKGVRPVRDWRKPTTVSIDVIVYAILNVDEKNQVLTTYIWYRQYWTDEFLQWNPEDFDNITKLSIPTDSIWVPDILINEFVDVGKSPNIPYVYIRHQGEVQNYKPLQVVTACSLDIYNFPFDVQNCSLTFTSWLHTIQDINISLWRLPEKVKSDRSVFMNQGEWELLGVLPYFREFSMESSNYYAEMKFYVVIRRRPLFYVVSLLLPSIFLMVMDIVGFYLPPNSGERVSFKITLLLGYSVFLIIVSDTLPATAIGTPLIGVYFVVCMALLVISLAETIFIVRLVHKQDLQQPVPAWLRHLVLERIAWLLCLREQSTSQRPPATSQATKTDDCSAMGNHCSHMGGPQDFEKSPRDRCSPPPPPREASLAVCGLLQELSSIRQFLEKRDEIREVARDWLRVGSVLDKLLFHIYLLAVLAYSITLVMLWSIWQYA

For `CCCCCNC(=N)NN=Cc1c[nH]c2ccc(OC)cc12` [Tegaserod, 3-(5-methoxy-1H-indol-3-yl-methylene)-N-pentylcarbazimidamide], the “binding to or stimulation of the 5-HT3 receptor subtype (selectivity)” value is listed as “does neither bind to nor stimulate”.
